Data from patent US20090286837A1, “Oxadiazole compounds as urokinase inhibitors” (priority 2005, published 2009).

Test system: BN-472 metastasizing breast tumor
Assay: anti-tumor and anti-metastatic efficacy in the BN-472 metastasizing breast tumor model
Assay type: in vivo, brown Norwegian rats
Details: oral administration, daily doses of 0.2 or 2 mg/kg for three weeks, rats
Protocol: Experiments were carried out in order to investigate the anti-tumor efficacy and anti-metastatic efficacy of WX-771, WX-780 and WX-781.
The assay system used was the BN-472 metastasizing breast tumor in brown Norwegian rats. The kind of tumor tissue used is described, for example, in Kort et al., J. Natl. Cancer Inst. 72 (1984) 709-713. The rats were purchased from Harlan Nederland, NL 5960-AD Horst, the Netherlands, and were from six to eight weeks old with a weight of from 128 g to 170 g.
(4-Chlorobenzylsulfonyl-D-Ser-Gly-4-guanidinobenzyl-amide, hydrochloride salt) whose anti-tumor and anti-metastatic efficacy with subcutaneous injection had been disclosed was also studied for comparative purposes. For administration, 0.75 mg of WX-340 was dissolved in 20 ml of 5% (weight/volume) D-manitol in water and administered by subcutaneous injection in doses of 0.2 mg of drug/kg of rat.
A phosphatidylcholine vehicle was administered as control and was obtained by introducing 400 mg of soya phosphatidylcholine in 20 ml of phosphate-buffered saline and 400 μl of absolute ethanol. 0.8 ml of the suspension was administered orally to the rats as control.
WX-771 (7.5 mg) was introduced into 20 ml of a soya phosphatidylcholine solution as used also for the control. To administer 2 mg/kg, 0.8 ml of this suspension was administered orally. For a second group, the stock solution was diluted 1:10 to obtain a dose of 0.2 mg/kg when administering likewise 0.8 ml per rat.
(§1) WX-780 (7.5 mg) was introduced into 20 ml of a soya phosphatidylcholine suspension according to the above-described control suspension. To administer a dose of 2 mg/kg, the rats were given 0.8 ml of said suspension. To administer a dose of 0.2 mg/kg, the stock solution was diluted 1:10, with 0.8 ml per rat still being administered.
as §1, with “WX-781” for “WX-780”, “orally.” for “of said suspension.”, “ml/rat” for “ml per rat”, “administered orally.” for “administered.”

SMILES | anti-metastatic action | anti-tumor action
CC(C)(C)C(=O)OC[C@@H](NS(=O)(=O)Cc1ccc(Cl)cc1)C(=O)NCC(=O)NCc1ccc(NC(=N)NOC(=O)C(C)(C)C)cc1 [WX-771] | significant | significant
C[C@@H](C(=O)NCc1ccc(Nc2noc(C(C)(C)C)n2)cc1)N(C)C(=O)[C@@H](COC(=O)C(C)(C)C)NS(=O)(=O)Cc1ccc(Cl)cc1 [WX-780] | significant | significant
CC(C)(C)C(=O)OC[C@@H](NS(=O)(=O)Cc1ccc(Cl)cc1)C(=O)NCC(=O)NCc1ccc(Nc2noc(C(C)(C)C)n2)cc1 [WX-781] | significant | significant
